Two compounds from US20060052440A1, “Medicinal composition for treating sudden deafness” (Nichimo Co., Ltd., priority 2002, published 2006) can be followed below.

The experiment can be described thus: SOD-like activity (superoxide scavenging activity) by ESR spin trap method, hypoxanthine-xanthine oxidase system with DMPO. Format: biochemical. The following applies: for SOD-like activity after emulsification: after emulsification (Tween-80 or other emulsifier), figures in parentheses; for SOD-like activity (superoxide scavenging activity): not emulsified, extracted with untreated 0.1 M phosphate buffer. An excerpt: This superoxide scavenging activity will be described in further detail below. Superoxides (O2') are a type of active oxygen that are produced by neutrophils and macrophages and protect the body from impurities, but also are the cause of pulmonary emphysema, cataracts, arteriosclerosis, psoriasis, and the like. These superoxides are, therefore, a double-edged sword. The enzyme activity of superoxide dismutase (SOD) and superoxide scavenging activity (SOSA or SOD-like activity) are examples of the ability of food products to eliminate O2'. The former is an enzyme and is therefore broken down by digestive enzymes and goes virtually unabsorbed in vivo when taken orally. Consequently, the latter is promising for food products. […] ESR is a method for measuring SOD-like activity and assessing the ability of […] to scavenge O2'. […] This method is also called the spin trap method. In accordance with preparation by this spin trap method, only the water-soluble components are extracted in order to extract the component with SOD-like activity contained in a sample with 0.1 M phosphate buffer. […] Consequently, measuring superoxide […] activity with the isoflavone pre-emulsified in a small amount of oil or fat was contemplated.

On to `O=c1c(-c2ccc(O)cc2)coc2cc(O)ccc12` [Daidzein, daidzein], for which the “SOD-like activity after emulsification” value is listed as “(300 or units/g” and the “SOD-like activity (superoxide scavenging activity)” value is reported as 300 or less units/g.

Regarding `O=c1c(-c2ccc(O)cc2)coc2cc(O)cc(O)c12` [Genistein, genistein], the “SOD-like activity after emulsification” value was “(300 or units/g” and the “SOD-like activity (superoxide scavenging activity)” value is given as 300 or less units/g.
